# Calls of active or inactive are those of the source. The rule behind the calls is not given here.
# Tests used:
# [1] = system: Leishmania infantum; assay: Antileishmanial activity against Leishmania infantum amastigotes harboring iRFP gene infected BALB/c mouse splenocytes after 48 hrs by infrared imaging method; assay type: functional
# [2] = Cytotoxicity against BALB/c mouse splenocytes assessed as cell viability after 48 hrs by alamar blue assay; assay type: toxicity, Splenocyte
# [3] = Selectivity index, ratio of CC50 for BALB/c mouse splenocytes to IC50 for Leishmania infantum amastigotes harboring iRFP gene infected BALB/c mouse splenocytes; assay type: functional
# [4] = system: Leishmania infantum; assay: Antileishmanial activity against Leishmania infantum BCN150 promastigotes harboring iRFP gene by infrared imaging method; assay type: functional
# [5] = system: Leishmania infantum; assay: (§1) Inhibition of Leishmania infantum recombinant topoisomerase 1B expressed in topoisomerase 1B- deficient Saccharomyces cerevisiae EKY3 assessed as decrease in relaxation of negatively supercoiled pSK DNA at 100 uM preincubated for 15 mins followed by supercoiled pSK DNA addition measured after 5 mins by aggarose gel electrophoresis
# [6] = as §1, with “DNA” for “DNA at 100 uM”
# [7] = organism: Homo sapiens; assay: as §1, with “human” for “Leishmania infantum”
# [8] = as §1, with “human” for “Leishmania infantum”, “DNA” for “DNA at 100 uM”
# [9] = system: Leishmania infantum; assay: as §1, with “1 min” for “15 mins”
# [10] = organism: Homo sapiens; assay: as §1, with “human” for “Leishmania infantum”, “1 min” for “15 mins”
# [11] = organism: Homo sapiens; assay: as §1, with “human” for “Leishmania infantum”, “5” for “15”
# [12] = system: Leishmania infantum; assay: as §1, with “5” for “15”
SMILES,IC50 [1],CC50 at 48 h [2],Ratio CC50/IC50 [3],IC50 [4],inhibition [5],IC50 [6],inhibition [7],IC50 [8],inhibition [9],inhibition [10],inhibition [11],inhibition [12]
Fc1ccc(-c2nc3cccnc3c3c2Cc2ccccc2-3)c(F)c1,6.07 µM,76.9 µM,12.7,,,,,,,,,
CSc1ccc(-c2nc3cccnc3c3c2Cc2ccccc2-3)cc1,58.1 µM,80.9 µM,1.39,75.1 µM,,,,,,,,
FC(F)(F)c1ccc(-c2nc3cccnc3c3c2Cc2ccccc2-3)cc1,3.35 µM,126 µM,37.6,84.7 µM,Active,23.6 µM,Active,27.4 µM,Active,Active,Active,Active
O=[N+]([O-])c1ccc([C@H]2Nc3cccnc3[C@H]3c4ccccc4C[C@H]32)cc1 (relative stereo),91.3 µM,> 100 µM,>1.09,> 100 µM,Active,> 100 µM,,10.7 µM,,Active,Active,Active
COc1cccc(-c2nc3cccnc3c3c2Cc2ccccc2-3)c1,93.3 µM,> 100 µM,>1.07,> 100 µM,Active,29.5 µM,,,Active,,,Active
Fc1ccc([C@H]2Nc3cccnc3[C@H]3c4ccccc4C[C@H]32)cc1 (relative stereo),2.97 µM,57.9 µM,19.5,9.8 µM,Active,49 µM,,,,,,Active
Fc1ccc([C@H]2Nc3cccnc3[C@H]3c4ccccc4C[C@H]32)cc1F (relative stereo),76.2 µM,77.5 µM,1.02,86.8 µM,,,,24.4 µM,,Active,Active,
c1ccc2c(c1)Cc1c(-c3ccc4ccccc4c3)nc3cccnc3c1-2,11.9 µM,75.8 µM,6.4,34.6 µM,Active,28.1 µM,Active,83.4 µM,Active,Active,Active,Active
Fc1ccc([C@H]2Nc3cccnc3[C@H]3c4ccccc4C[C@H]32)c(F)c1 (relative stereo),0.67 µM,32.1 µM,47.9,3.7 µM,,41.8 µM,,,Active,,,Active
C[C@H]1Nc2cccnc2[C@H]2c3ccccc3C[C@H]21 (relative stereo),89.4 µM,> 100 µM,>1.12,> 100 µM,,,,,,,,
COc1ccc(-c2nc3cccnc3c3c2Cc2ccccc2-3)cc1,5.8 µM,116 µM,20.1,,Active,14.1 µM,,,Active,,,Active
c1ccc([C@H]2Nc3cccnc3[C@H]3c4ccccc4C[C@H]32)cc1,65.1 µM,94.3 µM,1.45,> 100 µM,Active,45.2 µM,,46.5 µM,,Active,Active,Active
CCOC(=O)c1nc2cccnc2c2c1Cc1ccccc1-2,25.1 µM,59.4 µM,2.4,33.3 µM,,,,,,,,
Cc1ccc(-c2nc3cccnc3c3c2Cc2ccccc2-3)cc1,58.3 µM,68.2 µM,1.17,69.4 µM,,,,,,,,
CC[C@@]1(O)C(=O)OCc2c1cc1n(c2=O)Cc2cc3ccccc3nc2-1 [CAMPTOTHECIN],0.03 µM,0.62 µM,20.7,1.12 µM,,,,,Active,Active,,
COc1cccc([C@H]2Nc3cccnc3[C@H]3c4ccccc4C[C@H]32)c1 (relative stereo),0.54 µM,35.8 µM,66.3,5.4 µM,,21.8 µM,,,Active,,,Active
Fc1ccc(-c2nc3cccnc3c3c2Cc2ccccc2-3)cc1F,78.2 µM,74.2 µM,0.95,86.1 µM,,,,,,,,
C[C@@H]1[C@H](O)[C@@H](C)/C=C/C=C/C=C/C=C/C=C/C=C/C=C/[C@H](O[C@@H]2O[C@H](C)[C@@H](O)[C@H](N)[C@@H]2O)C[C@@H]2O[C@](O)(C[C@@H](O)C[C@@H](O)[C@H](O)CC[C@@H](O)C[C@@H](O)CC(=O)O[C@H]1C)C[C@H](O)[C@H]2C(=O)O [AMPHOTERICIN B],0.32 µM,> 20 µM,>62.5,0.77 µM,,,,,,,,
Fc1ccc(-c2nc3cccnc3c3c2Cc2ccccc2-3)cc1,0.74 µM,50.5 µM,68.2,34.9 µM,Active,14.7 µM,,87.7 µM,Active,Active,Active,Active
c1ccc2c(c1)Cc1c(-c3ccncc3)nc3cccnc3c1-2,,19.9 µM,,33.9 µM,,,,,,,,
c1ccc(-c2nc3cccnc3c3c2Cc2ccccc2-3)cc1,63.3 µM,90.2 µM,1.43,70.1 µM,,,,,,,,
O=[N+]([O-])c1ccc(-c2nc3cccnc3c3c2Cc2ccccc2-3)cc1,68.3 µM,88.1 µM,1.29,> 100 µM,Active,42.3 µM,Active,31.6 µM,Active,Active,Active,Active
Fc1cccc([C@H]2Nc3cccnc3[C@H]3c4ccccc4C[C@H]32)c1 (relative stereo),94.7 µM,85.3 µM,0.9,89.9 µM,,,,,,,,
c1ccc2c(c1)C[C@@H]1[C@H]2c2ncccc2N[C@@H]1c1ccncc1 (relative stereo),65.2 µM,94.6 µM,1.45,82.5 µM,,,,,,,,
CCOC(=O)[C@H]1Nc2cccnc2[C@H]2c3ccccc3C[C@H]21 (relative stereo),78.5 µM,> 100 µM,>1.27,90.8 µM,,,,,,,,
FC(F)(F)c1ccc([C@H]2Nc3cccnc3[C@H]3c4ccccc4C[C@H]32)cc1 (relative stereo),,4.6 µM,,6.1 µM,Active,60.6 µM,Active,22.4 µM,,,Active,Active
